Where a name gives a salt, the structure may show the parent alone.
Tests used:
[1] = test system: CCI rats (chronic constriction of the sciatic nerve of Wistar rats); settings: for efficacy for short-term/acute and long-term/chronic neuropathic pain: intravenous administration
K^+ currents from sdTGNs = test: Whole-cell voltage-clamp of K+ currents in small diameter trigeminal ganglion neurons; settings: dose dependent manner
[2] = test system: K^+ currents recorded from a small diameter neuron isolated from a dorsal-root ganglion of the 'affected' side of a CCI rat; test: Voltage dependence of steady-state inactivation of K+ currents, sdDRG neuron of CCI rat; settings: CCI rat 28 days after surgery
hKv1.3 = biological target: T1, hKv1.3 (Homo sapiens, UniProt P22001); test: Whole-cell voltage-clamp on cell lines expressing Kv1.x channels (nitenin); type: cell-based
T1 construct: expressed in transfected cells
From the text: In the context of this disclosure, “affinity” relates to the effect on the activity of such channel. Affinity can be measured by voltage clamp recordings of currents evoked by cells that express solely that given channel.
Voltage-clamp recordings under the whole-cell configurations were/are used to measure the ‘amount of inhibition’ of the whole-cell current evoked by a given channel expressed in non-excitable cell lines. Dose responses are obtained by measuring such inhibitions per each concentration. Voltage-activated K+ currents were evoked from mammalian cell lines expressing Kv1.1, Kv1.2, Kv1.3, Kv1.4, Kv1.5, kv1.6 or kv1.7 using standard voltage protocols (Schmitz et al., 2005; Vennekamp et al.).

T1 sequence (P22001 whole entry): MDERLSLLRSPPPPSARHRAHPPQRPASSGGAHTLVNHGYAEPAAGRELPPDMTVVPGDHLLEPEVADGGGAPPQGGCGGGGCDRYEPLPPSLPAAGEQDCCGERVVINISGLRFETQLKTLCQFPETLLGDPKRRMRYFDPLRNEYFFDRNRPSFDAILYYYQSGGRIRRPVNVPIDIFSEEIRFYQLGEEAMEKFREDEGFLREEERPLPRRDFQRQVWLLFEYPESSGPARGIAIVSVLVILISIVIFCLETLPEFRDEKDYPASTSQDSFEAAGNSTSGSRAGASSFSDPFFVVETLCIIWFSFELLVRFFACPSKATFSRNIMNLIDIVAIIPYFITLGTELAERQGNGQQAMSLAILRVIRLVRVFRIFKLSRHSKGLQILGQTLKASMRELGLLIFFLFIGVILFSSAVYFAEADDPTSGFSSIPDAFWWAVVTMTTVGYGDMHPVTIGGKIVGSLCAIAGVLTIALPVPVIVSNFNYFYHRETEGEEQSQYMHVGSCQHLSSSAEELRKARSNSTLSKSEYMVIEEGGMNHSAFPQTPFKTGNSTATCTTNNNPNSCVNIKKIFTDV

Structure (SMILES)	efficacy for short-term/acute and long-term/chronic neuropathic pain [1]	effect on K+ currents from sdTGNs (K^+ currents from sdTGNs)	Vh1 (voltage of half maximum current, component 1) of steady-state inactivation ([2]; AM92016 hidrochloride 40 nM, control Vh1=−71.3 mV) [mV]	Vh2 (voltage of half maximum current, component 2) of steady-state inactivation ([2]; AM92016 hidrochloride 40 nM, control Vh2=−28.2 mV) [mV]	Vh1 (voltage of half maximum current, component 1) of steady-state inactivation ([2]; PAP-1 2 nM, control Vh1=−90.1 mV) [mV]	Vh2 (voltage of half maximum current, component 2) of steady-state inactivation ([2]; PAP-1 2 nM, control Vh2=−27.8 mV) [mV]	IC50 (hKv1.3) [nM]	mechanical sensitivity of the ipsilateral leg at maximum effect ([1]; nitenin IV, estimated plasma concentration 1 μg/ml, 26 days after surgery, Von Frey)	Vh1 (voltage of half maximum current, component 1) of steady-state inactivation ([2]; nitenin 0.29 μM, control Vh1=−73.3 mV) [mV]	Vh2 (voltage of half maximum current, component 2) of steady-state inactivation ([2]; nitenin 0.29 μM, control Vh2=−26.3 mV) [mV]
CN(CCc1ccc(Cl)c(Cl)c1)CC(O)COc1ccc(NS(C)(=O)=O)cc1 (stereo not shown) [AM92016 hydrochloride]	effective	inhibit the K^+ currents	−93.63	−33.6	–	–	–	–	–	–
O=c1ccc2c(OCCCCOc3ccccc3)c3ccoc3cc2o1 [PAP-1, 5-(4-Phenoxybutoxy)psoralen]	effective	inhibit the K^+ currents	–	–	−101.7	−32.6	–	–	–	–
O=c1ccc2c(OCCCCc3ccccc3)c3ccoc3cc2o1 [PSORA-4, 4-(4-Phenylbutoxy)-7H-furo[3,2-g][1]benzopyran-7-one]	effective	inhibit the K^+ currents	–	–	–	–	–	–	–	–
C/C(=C\C1C/C(=C/CCc2ccoc2)C(=O)O1)CCCc1ccoc1 (stereo not shown) [nitenin]	effective	inhibit the K^+ currents	–	–	–	–	~190	in some instances similar to those obtained during baseline	−95.3	−47.0
